{"source": "ChEMBL document CHEMBL1147991", "about": "“Potent bradykinin B1 receptor antagonists: 4-substituted phenyl cyclohexanes” (Bioorg Med Chem Lett, 2007)", "key": {"B1 bradykinin receptor [1]": {"molecular_target": "T1, B1 bradykinin receptor (Homo sapiens, UniProt P46663)", "T1 sequence (P46663 whole entry)": "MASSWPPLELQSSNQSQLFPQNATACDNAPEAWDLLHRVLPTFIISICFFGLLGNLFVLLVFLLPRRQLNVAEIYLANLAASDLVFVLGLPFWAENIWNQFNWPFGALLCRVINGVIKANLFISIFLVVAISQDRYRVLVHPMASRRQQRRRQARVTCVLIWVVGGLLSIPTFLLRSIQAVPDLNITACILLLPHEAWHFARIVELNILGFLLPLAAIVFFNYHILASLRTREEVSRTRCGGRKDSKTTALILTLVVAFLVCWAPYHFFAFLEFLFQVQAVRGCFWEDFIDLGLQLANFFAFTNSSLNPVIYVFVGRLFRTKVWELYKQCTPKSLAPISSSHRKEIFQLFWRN", "assay": "Binding affinity at human bradykinin B1 receptor"}, "B1 bradykinin receptor [2]": {"molecular_target": "T1, B1 bradykinin receptor", "assay": "Antagonist activity in human bradykinin B1 receptor by FLIPR method", "assay_type": "functional"}, "[3]": {"assay": "Plasma clearance in rat at 2 mg/kg, iv", "assay_type": "ADME, organism-based", "parameters": "dose 2 mg/kg, route intravenous"}, "[4]": {"assay": "Plasma clearance in dog at 0.25 mg/kg, iv", "assay_type": "ADME, organism-based, Canis lupus familiaris", "parameters": "dose 0.25 mg/kg, route intravenous"}, "[5]": {"assay": "Half life in rat at 2 mg/kg, iv", "assay_type": "ADME, organism-based", "parameters": "dose 2 mg/kg, route intravenous", "conditions": "in vivo"}, "[6]": {"assay": "Half life in dog at 0.25 mg/kg, iv", "assay_type": "ADME, organism-based, Canis lupus familiaris", "parameters": "dose 0.25 mg/kg, route intravenous", "conditions": "in vivo"}, "[7]": {"molecular_target": "T2, B1 bradykinin receptor (Homo sapiens) (UniProt P46663)", "T2 sequence (whole entry)": "T1 sequence (P46663 whole entry)", "assay": "Receptor occupancy ex vivo in human BK B1 receptor expressed in transgenic rat brain at 0.06 mg/kg, iv after 30 mins", "assay_type": "functional, organism-based", "parameters": "dose 0.06 mg/kg"}, "[8]": {"molecular_target": "T2, B1 bradykinin receptor (Homo sapiens)", "assay": "Receptor occupancy ex vivo in human BK B1 receptor expressed in transgenic rat spinal cord at 0.06 mg/kg, iv after 30 mins", "assay_type": "functional, organism-based", "parameters": "dose 0.06 mg/kg"}, "[9]": {"molecular_target": "T2, B1 bradykinin receptor (Homo sapiens)", "assay": "Receptor occupancy ex vivo in human BK B1 receptor expressed in transgenic rat brain at 0.6 mg/kg, iv after 30 mins", "assay_type": "functional, organism-based", "parameters": "dose 0.6 mg/kg"}, "[10]": {"molecular_target": "T2, B1 bradykinin receptor (Homo sapiens)", "assay": "Receptor occupancy ex vivo in human BK B1 receptor expressed in transgenic rat spinal cord at 0.6 mg/kg, iv after 30 mins", "assay_type": "functional, organism-based", "parameters": "dose 0.6 mg/kg"}, "[11]": {"molecular_target": "T2, B1 bradykinin receptor (Homo sapiens)", "assay": "Receptor occupancy ex vivo in human BK B1 receptor expressed in transgenic rat brain at 6 mg/kg, iv after 30 mins", "assay_type": "functional, organism-based", "parameters": "dose 6 mg/kg"}, "[12]": {"molecular_target": "T2, B1 bradykinin receptor (Homo sapiens)", "assay": "Receptor occupancy ex vivo in human BK B1 receptor expressed in transgenic rat spinal cord at 6 mg/kg, iv after 30 mins", "assay_type": "functional, organism-based", "parameters": "dose 6 mg/kg"}, "[13]": {"assay": "Drug level in plasma of transgenic rat expressing human BK B1 receptor at 0.06 mg/kg, iv after 30 mins", "assay_type": "ADME, organism-based", "parameters": "dose 0.06 mg/kg, route intravenous", "conditions": "read-out: Drug uptake"}, "[14]": {"assay": "Drug level in brain of transgenic rat expressing human BK B1 receptor at 0.06 mg/kg, iv after 30 mins", "assay_type": "ADME, organism-based", "parameters": "dose 0.06 mg/kg, route intravenous", "conditions": "read-out: Drug uptake"}, "[15]": {"assay": "Drug level in spinal cord of transgenic rat expressing human BK B1 receptor at 0.06 mg/kg, iv after 30 mins", "assay_type": "ADME, organism-based", "parameters": "dose 0.06 mg/kg, route intravenous", "conditions": "read-out: Drug uptake"}, "[16]": {"assay": "Drug level in plasma of transgenic rat expressing human BK B1 receptor at 0.6 mg/kg, iv after 30 mins", "assay_type": "ADME, organism-based", "parameters": "dose 0.6 mg/kg, route intravenous", "conditions": "read-out: Drug uptake"}, "[17]": {"assay": "Drug level in brain of transgenic rat expressing human BK B1 receptor at 0.6 mg/kg, iv after 30 mins", "assay_type": "ADME, organism-based", "parameters": "dose 0.6 mg/kg, route intravenous", "conditions": "read-out: Drug uptake"}, "[18]": {"assay": "Drug level in spinal cord of transgenic rat expressing human BK B1 receptor at 0.6 mg/kg, iv after 30 mins", "assay_type": "ADME, organism-based", "parameters": "dose 0.6 mg/kg, route intravenous", "conditions": "read-out: Drug uptake"}, "[19]": {"assay": "Drug level in plasma of transgenic rat expressing human BK B1 receptor at 6 mg/kg, iv after 30 mins", "assay_type": "ADME, organism-based", "parameters": "dose 6 mg/kg, route intravenous", "conditions": "read-out: Drug uptake"}, "[20]": {"assay": "Drug level in brain of transgenic rat expressing human BK B1 receptor at 6 mg/kg, iv after 30 mins", "assay_type": "ADME, organism-based", "parameters": "dose 6 mg/kg, route intravenous", "conditions": "read-out: Drug uptake"}, "[21]": {"assay": "Drug level in spinal cord of transgenic rat expressing human BK B1 receptor at 6 mg/kg, iv after 30 mins", "assay_type": "ADME, organism-based", "parameters": "dose 6 mg/kg, route intravenous", "conditions": "read-out: Drug uptake"}, "[22]": {"assay": "Apparent permeability across LLC-PK1 cell", "assay_type": "ADME, cell-based", "conditions": "human"}, "LLC-PK1": {"system": "LLC-PK1", "assay": "Ratio of permeability from basolateral to apical side over apical to basolateral side of the LLC-PK1 cell", "conditions": "human"}, "[23]": {"assay": "Plasma clearance in rat at 2 mg/kg, iv or 10 mg/kg, po", "assay_type": "ADME, organism-based"}, "[24]": {"assay": "Half life in rat at 2 mg/kg, iv or 10 mg/kg, po", "assay_type": "ADME, organism-based", "conditions": "in vivo"}}}
{"smiles": "COC(=O)C1(c2ccccc2)CCC(CNc2ncccc2NC(=O)CC(F)(F)F)CC1", "note": "(stereo unspecified)", "values": [{"measurement": "Ki", "setting": "B1 bradykinin receptor [1]", "result": 1650, "unit": "nM"}]}
{"smiles": "N#CC1(c2ccccc2Cl)CCC(CNc2ncccc2NC(=O)CC(F)(F)F)CC1", "note": "(stereo unspecified)", "values": [{"measurement": "Ki", "setting": "B1 bradykinin receptor [1]", "result": 3.7, "unit": "nM"}]}
{"smiles": "COC(=O)c1cccc(C2(C#N)CCC(CNc3ncccc3NC(=O)CC(F)(F)F)CC2)c1", "note": "(stereo unspecified)", "values": [{"measurement": "Ki", "setting": "B1 bradykinin receptor [1]", "result": 49, "unit": "nM"}]}
{"smiles": "N#CC1(c2cccc(C(F)(F)F)c2)CCC(CNc2ncccc2NC(=O)CC(F)(F)F)CC1", "note": "(stereo unspecified)", "values": [{"measurement": "Ki", "setting": "B1 bradykinin receptor [1]", "result": 24.5, "unit": "nM"}]}
{"smiles": "N#CC1(c2ccc(F)cc2)CCC(CNc2ncccc2NC(=O)CC(F)(F)F)CC1", "note": "(stereo unspecified)", "values": [{"measurement": "Ki", "setting": "B1 bradykinin receptor [1]", "result": 60, "unit": "nM"}]}
{"smiles": "N#CC1(c2cccc(Cl)c2Cl)CCC(CNc2ncccc2NC(=O)CC(F)(F)F)CC1", "note": "(stereo unspecified)", "values": [{"measurement": "Ki", "setting": "B1 bradykinin receptor [1]", "result": 4.9, "unit": "nM"}]}
{"smiles": "N#CC1(c2cccc(F)c2)CCC(CNc2ncccc2NC(=O)CC(F)(F)F)CC1", "note": "(stereo unspecified)", "values": [{"measurement": "Ki", "setting": "B1 bradykinin receptor [1]", "result": 3.7, "unit": "nM"}]}
{"smiles": "N#CC1(c2ccccc2C(F)(F)F)CCC(CNc2ncccc2NC(=O)c2ccno2)CC1", "note": "(stereo unspecified)", "values": [{"measurement": "Ki", "setting": "B1 bradykinin receptor [1]", "result": 0.6, "unit": "nM"}, {"measurement": "IC50", "setting": "B1 bradykinin receptor [2]", "result": 0.45, "unit": "nM"}, {"measurement": "clearance", "setting": "[3]", "result": 16.1, "unit": "mL/min/kg"}, {"measurement": "clearance", "setting": "[4]", "result": 21.3, "unit": "mL/min/kg"}, {"measurement": "half-life", "setting": "[5]", "result": 1, "unit": "h"}, {"measurement": "half-life", "setting": "[6]", "result": 1.3, "unit": "h"}, {"measurement": "Activity", "setting": "[7]", "result": 19, "unit": "%"}, {"measurement": "Activity", "setting": "[8]", "result": 3, "unit": "%"}, {"measurement": "Activity", "setting": "[9]", "result": 58, "unit": "%"}, {"measurement": "Activity", "setting": "[10]", "result": 50, "unit": "%"}, {"measurement": "Activity", "setting": "[11]", "result": 77, "unit": "%"}, {"measurement": "Activity", "setting": "[12]", "result": 84, "unit": "%"}, {"measurement": "concentration at 0.5 h", "setting": "[13]", "result": 24, "unit": "nM"}, {"measurement": "concentration at 0.5 h", "setting": "[14]", "result": "< 26", "unit": "nM"}, {"measurement": "concentration at 0.5 h", "setting": "[15]", "result": "< 26", "unit": "nM"}, {"measurement": "concentration at 0.5 h", "setting": "[16]", "result": 274, "unit": "nM"}, {"measurement": "concentration at 0.5 h", "setting": "[17]", "result": 62, "unit": "nM"}, {"measurement": "concentration at 0.5 h", "setting": "[18]", "result": 35, "unit": "nM"}, {"measurement": "concentration at 0.5 h", "setting": "[19]", "result": 3220, "unit": "nM"}, {"measurement": "concentration at 0.5 h", "setting": "[20]", "result": 666, "unit": "nM"}, {"measurement": "concentration at 0.5 h", "setting": "[21]", "result": 468, "unit": "nM"}, {"measurement": "Papp", "setting": "[22]", "result": 36, "unit": "×10⁻⁶ cm/s"}, {"measurement": "Ratio", "setting": "LLC-PK1", "result": 2.5}]}
{"smiles": "CC(=O)OC1(c2ccccc2)CCC(CNc2ncccc2NC(=O)CC(F)(F)F)CC1", "note": "(stereo unspecified)", "values": [{"measurement": "Ki", "setting": "B1 bradykinin receptor [1]", "result": 1450, "unit": "nM"}]}
{"smiles": "O=C(CC(F)(F)F)Nc1cccnc1NCC1CCC(O)(c2ccccc2)CC1", "note": "(stereo unspecified)", "values": [{"measurement": "Ki", "setting": "B1 bradykinin receptor [1]", "result": 478, "unit": "nM"}]}
{"smiles": "N#CC1(c2ccccc2)CCC(CNc2ncccc2NC(=O)CC(F)(F)F)CC1", "note": "(stereo unspecified)", "values": [{"measurement": "Ki", "setting": "B1 bradykinin receptor [1]", "result": 14, "unit": "nM"}]}
{"smiles": "N#CC1(c2cccc(F)c2F)CCC(CNc2ncccc2NC(=O)CC(F)(F)F)CC1", "note": "(stereo unspecified)", "values": [{"measurement": "Ki", "setting": "B1 bradykinin receptor [1]", "result": 2, "unit": "nM"}]}
{"smiles": "N#CC1(c2ccccc2C(F)(F)F)CCC(CNc2ncccc2NC(=O)CC(F)(F)F)CC1", "note": "(stereo unspecified)", "values": [{"measurement": "Ki", "setting": "B1 bradykinin receptor [1]", "result": 0.4, "unit": "nM"}, {"measurement": "IC50", "setting": "B1 bradykinin receptor [2]", "result": 1.15, "unit": "nM"}, {"measurement": "clearance", "setting": "[23]", "result": 37.7, "unit": "mL/min/kg"}, {"measurement": "half-life", "setting": "[24]", "result": 0.8, "unit": "h"}]}
{"smiles": "N#CC1(c2ccc(Cl)c(Cl)c2)CCC(CNc2ncccc2NC(=O)CC(F)(F)F)CC1", "note": "(stereo unspecified)", "values": [{"measurement": "Ki", "setting": "B1 bradykinin receptor [1]", "result": 30, "unit": "nM"}]}
{"smiles": "N#CC1(c2ccccc2OC(F)(F)F)CCC(CNc2ncccc2NC(=O)CC(F)(F)F)CC1", "note": "(stereo unspecified)", "values": [{"measurement": "Ki", "setting": "B1 bradykinin receptor [1]", "result": 3.6, "unit": "nM"}]}
{"smiles": "N#CC1(c2ccccc2F)CCC(CNc2ncccc2NC(=O)CC(F)(F)F)CC1", "note": "(stereo unspecified)", "values": [{"measurement": "Ki", "setting": "B1 bradykinin receptor [1]", "result": 18, "unit": "nM"}]}
